Earlier results as cited in US9855261B2, “Polymeric compound having camptothecin compound and anti-cancer effect enhancer bound thereto, and use of same” (priority 2012, dated 2018).

Details: of its dose

CC[C@@]1(O)C(=O)OCc2c1cc1n(c2=O)Cc2cc3c(CN(C)C)c(O)ccc3nc2-1 [Topotecan]
share of dose excreted renally: 20-40%
